Reference: publication PMC7311426, “An amphipathic peptide with antibiotic activity against multidrug-resistant Gram-negative bacteria” (Nature Communications, 2020)
Values after ≈ are worked out from the molar mass of the structure shown. Read-outs that look alike come from different tables or passages of the source. Residues, ends and D or L forms follow the SMILES beside them.

How the values were obtained:
S. enterica Typhi = experiment: microbe, parasite or virus in culture; conditions: for MIC: Salmonella enterica, ATCC14028 / TYPHI, read-out: BMD MIC
Summary of the method: (§1)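 MICs were scored by eye after 18-20 h static incubation at 37 °C, with bacteria at 5 × 10^5 CFU mL^−1 in MHB. Peptides were serially diluted 2-fold over 12 points, top 128 or 64 μg mL^−1. CAMHB (CLSI) and 1% agarose-MHB variants were also run, at least six replicates.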

C. albicans = experiment: microbe, parasite or virus in culture
B. subtilis = experiment: microbe, parasite or virus in culture; conditions: for MIC: Bacillus subtilis
Summary of the method: as §1

K. pneumoniae = experiment: microbe, parasite or virus in culture; conditions: for MIC: Klebsiella pneumoniae, mode of 6 replicates
Summary of the method: as §1

A. baumannii = experiment: microbe, parasite or virus in culture; conditions: for MIC: Acinetobacter baumannii, mode of 6 replicates
Summary of the method: as §1

P. aeruginosa = experiment: microbe, parasite or virus in culture; conditions: for MIC: Pseudomonas aeruginosa, mode of 6 replicates
Summary of the method: as §1

L. monocytogenes = experiment: microbe, parasite or virus in culture
Summary of the method: as §1

C. neoformans = experiment: microbe, parasite or virus in culture
[1] = system: HepG2 liver hepatocellular carcinoma cells; experiment: in vitro
in vitro = conditions: human
[2] = system: HEK-293 human embryonic kidney cells; experiment: in vitro
[3] = system: HK-2 human kidney proximal tubule cells; experiment: in vitro
E. coli ATCC 25922 = experiment: microbe, parasite or virus in culture; format: cell-based, Escherichia coli; conditions: ATCC 25922
Summary of the method: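 Broth microdilution MIC in Mueller Hinton broth, 12-point 2-fold series from 128 or 64 down to 0.06 or 0.03 μg mL^−1, 5 × 10^5 CFU mL^−1 inoculum. Read visually after 18-20 h at 37 °C without shaking; n ≥ 6. Additional tests in CAMHB, and in MHB with 1% agarose.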

[4] = system: human erythrocytes (HRBC); format: cell-based
E. coli [5] = experiment: microbe, parasite or virus in culture; conditions: Escherichia coli
Summary of the method: as §1

E. coli [6] = system: E. coli; set-up: method as in Hasman H, et al. Euro. Surveill. (2015) 20:49; conditions: E. coli ESBL20150072, mcr-1 pos; ESBL; CAMHB; comparator antibiotics; ref Hasman H, et al. Euro. Surveill. (2015) 20:49; cited from earlier work
[7] = system: A. baumannii clinical isolates; experiment: microbe, parasite or virus in culture
Experimental: (§2) The in vitro activity of AA139 and comparator antimicrobials was determined in two panels of clinical isolates of E. coli, K. pneumoniae, P. aeruginosa, and A. baumannii (Supplementary Table 3), and MIC90 presented. The US panel consisted of 331 clinical isolates from 2010 to 2012. It was tested by BMD in accordance with the CLSI guidelines (M07-A9, 2012)[39]. […] AA139 was diluted in 0.01% acetic acid/0.1% bovine serum albumin. Sterile polypropylene culture cluster round-bottom 96-well plates (Costar # 3879) were used for testing. The worldwide panel consisted of 445 clinical isolates from 2011 to 2013, geographically divided into Asia, Europe, North America, and Rest of World (Middle East, Latin America, Africa, and South Pacific) with each region representing ~25% of the isolates. It was tested by broth microdilution in accordance with the CLSI guidelines (M07-A9, 2012)[39]. […] The test media was CAMHB (Becton Dickinson). AA139 and polymyxin B were tested in media supplemented with 0.002% Tween 80 (Calbiochem). MIC90 values were calculated for all or subsets of the isolates. MIC correlation between AA139 and colistin was analyzed with data from the US panel.

[8] = system: P. aeruginosa clinical isolates; experiment: microbe, parasite or virus in culture
Experimental: as §2

[9] = system: E. coli clinical isolates; experiment: microbe, parasite or virus in culture
Experimental: as §2

[10] = system: K. pneumoniae clinical isolates; experiment: microbe, parasite or virus in culture
Experimental: as §2

[11] = system: human primary hepatocytes; experiment: Cell viability, human primary hepatocytes (Eurofins Panlabs); format: cell-based; conditions: Homo sapiens, Hepatocyte; plateable cryopreserved hepatocytes, alamarBlue, 24 h 37 °C, fluorimetry; 8-point 0.1–300 μM
Experimental: Cell viability of human primary hepatocytes against AA139 was assessed by fluorometric readout of Alamar Blue following 24 h incubation at 37 °C of human plateable cryopreserved hepatocytes and AA139 as an 8-point dose response, 0.1–300 μM, as described by Nociari et al.[41]. Cell viability was calculated as a percentage of the control cells and plotted versus concentration using Prism 8 Software. The IC50 value was determined by non-linear regression analysis of the concentration–response curve using the Hill equation. Assay was performed by Eurofins Pharma Discovery Services (Panlabs), St Charles, MO, USA, study number 100049990. Source data are provided as a source data file.

S. aureus = experiment: microbe, parasite or virus in culture; conditions: Staphylococcus aureus, mode of 6 replicates
Summary of the method: as §1

[12] = Worldwide isolates 2011-2013, A. baumannii n = 108
[13] = Worldwide isolates 2011-2013, P. aeruginosa n = 111
[14] = Worldwide isolates 2011-2013, E. coli n = 112
[15] = Worldwide isolates 2011-2013, K. pneumoniae n = 114

For `CC(C)[C@@H]1NC(=O)CNC(=O)[C@H](CC(N)=O)NC(=O)[C@H](CCCNC(=N)N)NC(=O)[C@H](Cc2ccc(O)cc2)NC(=O)[C@H](C(C)C)NC(=O)[C@@H]2CSSC[C@H](NC(=O)[C@H](C(C)C)NC(=O)[C@H](CCCNC(=N)N)NC1=O)C(=O)N[C@@H](Cc1ccc(O)cc1)C(=O)N[C@@H](CCCNC(=N)N)C(=O)N[C@@H](CCCNC(=N)N)C(=O)N[C@H](C(=O)N[C@@H](CC(N)=O)C(=O)O)CSSC[C@H](NC(=O)[C@H](Cc1ccccc1)NC(=O)CN)C(=O)N[C@@H](Cc1c[nH]c3ccccc13)C(=O)N[C@@H](Cc1ccc(O)cc1)C(=O)N[C@@H](C(C)C)C(=O)N2` [Arenicin-3] (HELM PEPTIDE1{G.F.C.W.Y.V.C.V.Y.R.N.G.V.R.V.C.Y.R.R.C.N}$PEPTIDE1,PEPTIDE1,3:R3-20:R3|PEPTIDE1,PEPTIDE1,7:R3-16:R3$$$V2.0), the “BMD MIC” value (S. enterica Typhi; Typhi) was 2 µg/mL, the “BMD MIC” value (C. albicans) was >32 µg/mL and the “BMD MIC” value (C. albicans; 24 h) was >64 µg/mL. For the same molecule, the “BMD MIC” value (B. subtilis) was 8 µg/mL, the “BMD MIC” value (K. pneumoniae) was 1 µg/mL and the “BMD MIC” value (A. baumannii) was 1 µg/mL. The “BMD MIC” value (P. aeruginosa) was 1 µg/mL, the “BMD MIC” value (L. monocytogenes) was 8 µg/mL and the “BMD MIC” value (C. neoformans) was 1 µg/mL. The “CC50 HepG2” value [1] was >300 µg/mL, the “CC50 HepG2, Mean” value [1] was >300 µg/mL and the “CC50 HepG2” value ([1]; human, HepG2 cells, 24 h) was >300 µg/mL. The CC50 at 24 h (in vitro; HEK-293 cells) was 271 µg/mL (≈ 104 µM), the CC50 at 24 h (in vitro; HK-2 cells) was 170 µg/mL (≈ 65.1 µM) and the “CC50 HEK293, Mean” value [2] was 271 µg/mL (≈ 104 µM). The “CC50 HK2, Mean” value [3] was 170 µg/mL (≈ 65.1 µM), the “MIC, MHB” value (E. coli ATCC 25922) was 1 µg/mL (≈ 0.383 µM) and the “Heamolysis HC10, Mean” value [4] was 204 µg/mL.

In the case of `CC(C)(O/N=C(\C(=O)N[C@@H]1C(=O)N2C(C(=O)[O-])=C(C[n+]3ccccc3)CS[C@H]12)c1csc(N)n1)C(=O)O` [Ceftazidime, ceftazidime, reference compound], the MIC (S. enterica Typhi) is reported as ≤ 0.5 µg/mL, the MIC (K. pneumoniae; ATCC13883, read-out: BMD MIC, K. pneumoniae ATCC 13883 type strain (polymyxin/colistin heteroresistant), MHB) is reported as 1 µg/mL (≈ 1.83 µM) and the MIC (K. pneumoniae; ATCC700603, read-out: BMD MIC, K. pneumoniae ATCC 700603 (K6), MDR, OXA-2/SHV-18, CAMHB) is reported as > 64 µg/mL. The MIC (K. pneumoniae; BAA2146, read-out: BMD MIC, K. pneumoniae BAA-2146, MDR, ESBL, NDM-1 pos, MHB) was > 64 µg/mL, the MIC (K. pneumoniae; read-out: BMD MIC, K. pneumoniae Greece CI 8_GR_13, XDR, KPC-2, PmxR, MHB) was > 64 µg/mL and the MIC (A. baumannii; ATCC19636, read-out: BMD MIC, A. baumannii ATCC 19636 type strain, CAMHB) was 16 µg/mL (≈ 29.3 µM). For the same molecule, the MIC (A. baumannii; read-out: BMD MIC, A. baumannii Greece CI, XDR, PmxR, MHB) was > 64 µg/mL, the MIC (P. aeruginosa; ATCC27853, read-out: BMD MIC, P. aeruginosa ATCC 27853 control strain, CAMHB) was 8 µg/mL (≈ 14.6 µM) and the MIC (P. aeruginosa; read-out: BMD MIC, P. aeruginosa FADDI-070, MDR, PmxR, MHB/CAMHB) was > 64 µg/mL. For the same molecule, the MIC (E. coli [5]; ATCC25922, read-out: BMD MIC, E. coli ATCC 25922 FDA control strain, CAMHB, mode of 6 replicates) was 1 µg/mL (≈ 1.83 µM), the MIC (E. coli [5]; ATCC700926 / MG1655, read-out: BMD MIC) was ≤ 0.5 µg/mL and the MIC (E. coli [5]; ATCC700928, read-out: BMD MIC, E. coli ATCC 700928 CFT073 UPEC, CAMHB, mode of 6 replicates) was ≤ 0.25 µg/mL. For the same molecule, the MIC (E. coli [5]; read-out: BMD MIC) was 16 µg/mL (≈ 29.3 µM), the “BMD MIC” value (E. coli [6]) was >16 µg/mL and the MIC90 ([7]; Acinetobacter baumannii) was > 32 µg/mL. For the same molecule, the MIC90 ([7]; US isolates 2010–2012, A. baumannii MDR, n = 19) was >32 µg/mL, the MIC90 ([7]; US isolates 2010–2012, A. baumannii XDR, n = 31) was >32 µg/mL and the MIC50 [7, 12] was > 32 µg/mL. The MIC90 [7, 12] was > 32 µg/mL, the MIC90 ([8]; Pseudomonas aeruginosa, US isolates 2010–2012, P. aeruginosa Non-MDR, n = 41) was 32 µg/mL (≈ 58.5 µM) and the MIC90 ([8]; Pseudomonas aeruginosa, US isolates 2010–2012, P. aeruginosa XDR, n = 37) was > 32 µg/mL. For the same molecule, the MIC50 [8, 13] was 4 µg/mL (≈ 7.32 µM), the MIC90 [8, 13] was > 32 µg/mL and the MIC90 ([9]; Escherichia coli) was 32 µg/mL (≈ 58.5 µM). The MIC90 ([9]; Escherichia coli, US isolates 2010–2012, E. coli MDR, n = 31) was > 32 µg/mL, the MIC90 ([9]; Escherichia coli, US isolates 2010–2012, E. coli Non-MDR, n = 24) was 2 µg/mL (≈ 3.66 µM) and the MIC50 [9, 14] was 0.25 µg/mL (≈ 0.457 µM). The MIC90 [9, 14] was 32 µg/mL (≈ 58.5 µM), the MIC90 ([10]; Klebsiella pneumoniae, US isolates 2010–2012, K. pneumoniae Non-MDR, n = 24) was 1 µg/mL (≈ 1.83 µM) and the MIC90 ([10]; Klebsiella pneumoniae, US isolates 2010–2012, K. pneumoniae XDR, n = 55) was > 32 µg/mL. The MIC50 [10, 15] was 1 µg/mL (≈ 1.83 µM) and the MIC90 [10, 15] was > 32 µg/mL.

`CN(C)CCCN1c2ccccc2Sc2ccc(Cl)cc21` [Chlorpromazine, reference compound] showed an IC50 [11] of 35 µM.

For `CN[C@H](CC(C)C)C(=O)N[C@H]1C(=O)N[C@@H](CC(N)=O)C(=O)N[C@H]2C(=O)N[C@H]3C(=O)N[C@H](C(=O)N[C@H](C(=O)O)c4cc(O)cc(O)c4-c4cc3ccc4O)[C@H](O)c3ccc(c(Cl)c3)Oc3cc2cc(c3O[C@@H]2O[C@H](CO)[C@@H](O)[C@H](O)[C@H]2O[C@H]2C[C@](C)(N)[C@H](O)[C@H](C)O2)Oc2ccc(cc2Cl)[C@H]1O` [Vancomycin, reference compound], the MIC (S. enterica Typhi) was > 64 µg/mL, the MIC (B. subtilis; ATCC6051 / NRS744, read-out: BMD MIC) was 0.25 µg/mL (≈ 0.173 µM) and the MIC (B. subtilis; ATCC6633 / NRS231, read-out: BMD MIC) was 0.25 µg/mL (≈ 0.173 µM). The MIC (S. aureus; ATCC25923|MSSA, read-out: BMD MIC, S. aureus ATCC 25923 MSSA, CAMHB) was 2 µg/mL (≈ 1.38 µM), the MIC (S. aureus; ATCC25923|MSSA, read-out: BMD MIC, S. aureus ATCC 25923 MSSA, MHB) was 1 µg/mL (≈ 0.69 µM) and the MIC (S. aureus; ATCC43300|MRSA, read-out: BMD MIC, S. aureus ATCC 43300 MRSA, MHB) was 1 µg/mL (≈ 0.69 µM). The MIC (L. monocytogenes; Listeria monocytogenes, ATCC19112, read-out: BMD MIC) was 4 µg/mL (≈ 2.76 µM).
